pIC50: −log10 of the molar value.
Each molecule was assayed against Human Factor D (Homo sapiens (Human), UniProt P00746) (assay: Human Factor D Assay). Conditions: Factor D inhibition, assay of Example 10; read-out: IC5 (Stars).
Assay type: biochemical
Method in brief: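 Serum-purified Factor D (80 nM final) preincubated 5 min at room temperature with compound in 50 mM Tris, 1 M NaCl, pH 7.5. Z-L-Lys-SBz and DTNB added at 100 μM each; A405 followed every 30 s for 30 min. IC50 from nonlinear regression of rates versus concentration.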

Chain of Human Factor D (P00746 26-253): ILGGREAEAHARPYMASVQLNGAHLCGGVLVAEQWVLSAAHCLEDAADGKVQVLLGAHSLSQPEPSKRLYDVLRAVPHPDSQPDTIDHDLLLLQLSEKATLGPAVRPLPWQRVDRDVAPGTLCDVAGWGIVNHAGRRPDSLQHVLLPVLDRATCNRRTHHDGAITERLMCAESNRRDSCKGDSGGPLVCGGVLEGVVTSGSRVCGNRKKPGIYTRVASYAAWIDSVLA

Structure (SMILES) | pIC50
CC(=O)c1nn(CC(=O)N2[C@H](C(=O)Nc3cc(C(F)(F)F)cc(Br)n3)C[C@@]3(C)C[C@@H]23)c2ccc(-c3cnc(C)nc3)cc12 [Compound 550, (1R,3S,5R)-2-(2-(3-acetyl-5-(2-methylpyrimidin-5-yl)-1H-indazol-1-yl)acetyl)-N-(6-bromo-4-(trifluoromethyl)pyridin-2-yl)-5-methyl-2-azabicyclo[3.1.0]hexane-3-carboxamide] | > 6.00
CC(=O)c1nn(CC(=O)N2[C@H](C(=O)NCCC(C)(C)C)C[C@@]3(C)C[C@@H]23)c2ccc(-c3cnc(C)nc3)cc12 [Compound 552, (1R,3S,5R)-2-(2-(3-acetyl-5-(2-methylpyrimidin-5-yl)-1H-indazol-1-yl)acetyl)-N-(3,3-dimethylbutyl)-5-methyl-2-azabicyclo[3.1.0]hexane-3-carboxamide] | > 6.00
CC(=O)c1nn(CC(=O)N2[C@H](C(=O)N[C@@H](C)c3ccccc3)C[C@@]3(C)C[C@@H]23)c2ccc(-c3cnc(C)nc3)cc12 [Compound 553, (1R,3S,5R)-2-(2-(3-acetyl-5-(2-methylpyrimidin-5-yl)-1H-indazol-1-yl)acetyl)-5-methyl-N-((S)-1-phenylethyl)-2-azabicyclo[3.1.0]hexane-3-carboxamide] | > 6.00
CC(=O)c1nn(CC(=O)N2[C@H](C(=O)N[C@@H](C)COC(F)(F)F)C[C@@]3(C)C[C@@H]23)c2ccc(-c3cnc(C)nc3)cc12 [Compound 554, (1R,3S,5R)-2-(2-(3-acetyl-5-(2-methylpyrimidin-5-yl)-1H-indazol-1-yl)acetyl)-5-methyl-N-((S)-1-(trifluoromethoxy)propan-2-yl)-2-azabicyclo[3.1.0]hexane-3-carboxamide] | > 6.00
CC(=O)c1nn(CC(=O)N2[C@H](C(=O)Nc3cc(Cc4ccccc4)cc(Br)n3)C[C@@]3(C)C[C@@H]23)c2ccc(-c3cnc(C)nc3)cc12 [Compound 555, (1R,5R)-2-(2-(3-acetyl-5-(2-methylpyrimidin-5-yl)-1H-indazol-1-yl)acetyl)-N-(4-benzyl-6-bromopyridin-2-yl)-5-methyl-2-azabicyclo[3.1.0]hexane-3-carboxamide] | > 6.00
CC(=O)c1nn(CC(=O)N2[C@H](C(=O)Nc3cc(-c4ccccc4O)cc(Br)n3)C[C@@]3(C)C[C@@H]23)c2ccc(-c3cnc(C)nc3)cc12 [Compound 556, (1R,3S,5R)-2-(2-(3-acetyl-5-(2-methylpyrimidin-5-yl)-1H-indazol-1-yl)acetyl)-N-(6-bromo-4-(2-hydroxyphenyl)pyridin-2-yl)-5-methyl-2-azabicyclo[3.1.0]hexane-3-carboxamide] | > 6.00
CC(=O)c1nn(CC(=O)N2[C@H](C(=O)Nc3cc(COCc4ccccc4)cc(Br)n3)C[C@@]3(C)C[C@@H]23)c2ccc(-c3cnc(C)nc3)cc12 [Compound 557, (1R,3S,5R)-2-(2-(3-acetyl-5-(2-methylpyrimidin-5-yl)-1H-indazol-1-yl)acetyl)-N-(4-6-bromopyridin-2-yl)-5-methyl-2-azabicyclo[3.1.0]hexane-3-carboxamide] | > 6.00
CC(=O)c1nn(CC(=O)N2[C@H](C(=O)N[C@H](C)c3ccccc3)C[C@@]3(C)C[C@@H]23)c2ccc(-c3cnc(C)nc3)cc12 [Compound 558, (1R,3S,5R)-2-(2-(3-acetyl-5-(2-methylpyrimidin-5-yl)-1H-indazol-1-yl)acetyl)-5-methyl-N-((R)-1-phenylethyl)-2-azabicyclo[3.1.0]hexane-3-carboxamide] | > 6.00
CC(=O)c1nn(CC(=O)N2[C@H](C(=O)NC/C(F)=C(/C)c3ccccc3)C[C@@]3(C)C[C@@H]23)c2ccc(-c3cnc(C)nc3)cc12 [Compound 559, (1R,3S,5R)-2-(2-(3-acetyl-5-(2-methylpyrimidin-5-yl)-1H-indazol-1-yl)acetyl)-N-((E)-2-fluoro-3-phenylbut-2-en-1-yl)-5-methyl-2-azabicyclo[3.1.0]hexane-3-carboxamide] | > 6.00
CC(=O)c1cn(CC(=O)N2[C@H](C(=O)NC/C(F)=C(/C)c3ccccc3)C[C@@]3(C)C[C@@H]23)c2cnc(-c3cnc(C)nc3)cc12 [Compound 560] | > 6.00
CC(=O)c1nn(CC(=O)N2[C@H](C(=O)NC/C(F)=C(/C)c3ccccc3)C[C@@]3(C)C[C@@H]23)c2c(C)cc(-c3cnc(C)nc3)cc12 [Compound 561, (1R,3S,5R)-2-(2-(3-acetyl-7-methyl-5-(2 methylpyrimidin-5-yl)-1H-indazol-1-yl)acetyl)-N-((E)-2-fluoro-3-phenylbut-2-en-1-yl)-5-methyl-2-azabicyclo[3.1.0]hexane-3-carboxamide] | > 6.00
Cc1ncc(-c2ccc3c(c2)c(C(=O)NC(C)C)nn3CC(=O)N2[C@H](C(=O)Nc3nc(Br)ccc3C)C[C@@]3(C)C[C@@H]23)cn1 [Compound 562, 1-(2-((1R,3S,5R)-3-((6-bromo-3-methylpyridin-2-yl)carbamoyl)-5-methyl-2-azabicyclo[3.1.0]hexan-2-yl)-2-oxoethyl)-N-isopropyl-5-(2-methylpyrimidin-5-yl)-1H-indazole-3-carboxamide] | 5.00 to 6.00
CC(=O)c1nn(CC(=O)N2[C@H](C(=O)Nc3cc(CC(F)(F)F)cc(Br)n3)C[C@@]3(C)C[C@@H]23)c2ccc(-c3cnc(C)nc3)cc12 [Compound 572, (1R,3S,5R)-2-(2-(3-acetyl-5-(2-methylpyrimidin-5-yl)-1H-indazol-1-yl)acetyl)-N-(6-bromo-4-(2,2,2-trifluoroethyl)pyridin-2-yl)-5-methyl-2-azabicyclo[3.1.0]hexane-3-carboxamide] | > 6.00
CC(=O)c1nn(CC(=O)N2[C@H](C(=O)NCCOC(F)(F)F)C[C@@]3(C)C[C@@H]23)c2ccc(-c3cnc(C)nc3)cc12 [Compound 579, (1R,3S,5R)-2-(2-(3-acetyl-5-(2-methylpyrimidin-5-yl)-1H-indazol-1-yl)acetyl)-5-methyl-N-(2-(trifluoromethoxy)ethyl)-2-azabicyclo[3.1.0] hexane-3-carboxamide] | > 6.00
CC(=O)c1nn(CC(=O)N2[C@H](C(=O)N[C@@H](C)CC(C)(C)C)C[C@@]3(C)C[C@@H]23)c2ccc(-c3cnc(C)nc3)cc12 [Compound 588, (1R,3S,5R)-2-(2-(3-acetyl-5-(2-methylpyrimidin-5-yl)-1H-indazol-1-yl)acetyl)-N-((S)-4,4-dimethylpentan-2-yl)-5-methyl-2-azabicyclo[3.1.0]hexane-3-carboxamide] | 5.00 to 6.00
CC(=O)c1nn(CC(=O)N2[C@H](C(=O)N[C@H](C)CC(C)(C)C)C[C@@]3(C)C[C@@H]23)c2ccc(-c3cnc(C)nc3)cc12 [Compound 589, (1R,3S,5R)-2-(2-(3-acetyl-5-(2-methylpyrimidin-5-yl)-1H-indazol-1-yl)acetyl)-N-((R)-4,4-dimethylpentan-2-yl)-5-methyl-2-azabicyclo[3.1.0]hexane-3-carboxamide] | > 6.00

Same assay, conditions: Table 8; Factor D 80 nM, substrate Z-L-Lys-SBz; read-out: IC50

Structure (SMILES) | pIC50
CCC(C)NC(=O)c1nn(CC(=O)N2[C@H](C(=O)Nc3nc(Br)ccc3C)C[C@@]3(C)C[C@@H]23)c2ccc(-c3cnc(C)nc3)cc12 (stereo partly drawn) [Compound 569, 1-(2-((1R,3S,5R)-3-((6-bromo-3-methylpyridin-2-yl)carbamoyl)-5-methyl-2-azabicyclo[3.1.0]hexan-2-yl)-2-oxoethyl)-N-(sec-butyl)-5-(2-methylpyrimidin-5-yl)-1H-indazole-3-carboxamide] | 5.00 to 6.00
